Measured values published in patent US20260365653A1, “IRREVERSIBLE MUTEGFR INHIBITORS” (Bayer Aktiengesellschaft, priority 2022, published 2026).
Values joined by “and” are separate entries in the source; they are usually repeats but may differ in a detail not shown here. Identical values can stand only once.

Tests used:
[1] = system: BA/F3 (insSVD) cells; assay: Ba/F3-EGFR-insSVD cell survival assay (Cell Titer-Glo); format: cell-based; settings: Mus musculus, BaF3, 48 h, Table 3a, cell survival, Cell Titer-Glo, with 10 ng/ml EGF, without IL-3
Outline: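 Ba/F3 cells stably expressing retroviral EGFR-insSVD or insSVD T790M, grown without IL-3 on 10 ng/ml EGF, 4000 cells/well. Compound pinned in, 48 h at 37° C. Viability by CellTiter-Glo luminescence.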

[2] = target: T1, mutEGFR (D770_N771insSVD) (Homo sapiens, UniProt P00533, DUP768-770); assay: Exon20-Mutant-EGFR (D770_N771insSVD) kinase assay (TR-FRET); format: biochemical; settings: mutEGFR (D770_N771insSVD) kinase assay IC50, Table 2a; D770_N771insSVD; 2 mM ATP
T1 construct: GST-EGFR #3 (SVD between D770 and N771); made in house; host or cells: Sf9 insect cells (baculovirus)

[3] = target: T2, mutEGFR (D770_N771insNPG, T790) (Homo sapiens, UniProt P00533, INS770NPG/T790M); assay: mutEGFR (D770_N771insNPG, T790) kinase assay; format: biochemical; settings: Table 2a, D770_N771insNPG
T2 construct: exact insNPG construct not described; in-house EGFR proteins were N-terminal GST fusions from baculovirus/insect cells (borders R669-A1210 given only for WT, insSVD, insASV)
From the text: The different EGFR proteins used in the biochemical kinase activity inhibition assays were generated inhouse by expression in insect cells using Baculo Virus system and subsequent purification as described in the following paragraphs.
The cDNAs encoding the various protein sequences from human EGFR human (P00533) were optimized for expression in eukaryotic cells and synthesized by the GeneArt Technology at Life Technologies.

T2 sequence (P00533 with tags, fused parts or gaps INS770NPG/T790M limits assumed): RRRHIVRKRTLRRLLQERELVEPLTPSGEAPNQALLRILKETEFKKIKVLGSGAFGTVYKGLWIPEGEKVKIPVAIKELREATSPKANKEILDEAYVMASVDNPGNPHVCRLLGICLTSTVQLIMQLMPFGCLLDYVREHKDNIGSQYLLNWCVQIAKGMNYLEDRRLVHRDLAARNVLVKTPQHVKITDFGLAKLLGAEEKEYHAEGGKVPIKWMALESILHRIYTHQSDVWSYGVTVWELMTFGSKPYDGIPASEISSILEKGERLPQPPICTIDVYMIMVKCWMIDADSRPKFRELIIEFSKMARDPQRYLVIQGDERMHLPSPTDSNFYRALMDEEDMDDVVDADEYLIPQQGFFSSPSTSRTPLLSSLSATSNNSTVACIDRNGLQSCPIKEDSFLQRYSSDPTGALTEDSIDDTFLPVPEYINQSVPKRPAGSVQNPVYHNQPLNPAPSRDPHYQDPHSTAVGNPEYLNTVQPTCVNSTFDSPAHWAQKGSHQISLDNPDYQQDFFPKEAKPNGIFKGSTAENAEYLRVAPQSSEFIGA
T1 sequence (P00533 with tags, fused parts or gaps DUP768-770): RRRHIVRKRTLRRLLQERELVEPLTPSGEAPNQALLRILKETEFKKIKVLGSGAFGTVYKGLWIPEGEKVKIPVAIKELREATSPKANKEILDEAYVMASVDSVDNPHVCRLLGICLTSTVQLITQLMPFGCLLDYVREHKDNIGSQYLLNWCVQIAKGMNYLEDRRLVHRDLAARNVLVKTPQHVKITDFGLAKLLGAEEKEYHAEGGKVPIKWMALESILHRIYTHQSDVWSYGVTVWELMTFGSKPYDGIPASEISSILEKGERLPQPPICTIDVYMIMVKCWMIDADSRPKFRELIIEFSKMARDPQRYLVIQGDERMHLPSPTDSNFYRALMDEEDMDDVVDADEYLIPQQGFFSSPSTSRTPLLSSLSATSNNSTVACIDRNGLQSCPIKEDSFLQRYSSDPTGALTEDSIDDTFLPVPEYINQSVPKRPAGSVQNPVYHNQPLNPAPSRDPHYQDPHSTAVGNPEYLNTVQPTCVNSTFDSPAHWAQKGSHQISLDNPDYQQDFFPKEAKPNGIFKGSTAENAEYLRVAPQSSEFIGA

Row | Compound | IC50 [1] | IC50 [2] | IC50 [3]
1 | C=CC(=O)N1Cc2c(-c3ccncc3)c(-c3ccc(F)cc3)nn2C(CC(N)=O)C1 (stereo not drawn) [Example 224, 2-(5-acryloyl-2-(4-fluorophenyl)-3-(pyridin-4-yl)-4,5,6,7-tetrahydropyrazolo[1,5-a]pyrazin-7-yl) acetamide] | 338 nM | 2.38 nM | 7.59 nM
2 | C=CC(=O)N1Cc2c(-c3ccncc3)c(-c3ccc(F)cc3)nn2C(CC(=O)NC)C1 (stereo not drawn) [Example 225, 2-(5-acryloyl-2-(4-fluorophenyl)-3-(pyridin-4-yl)-4,5,6,7-tetrahydropyrazolo[1,5-a]pyrazin-7-yl)-N-methylacetamide] | 386 nM | 10.1 nM | 36.6 nM
3 | C=CC(=O)N1Cc2c(-c3ccncc3)c(-c3ccc(F)cc3)nn2C(CC(=O)N(C)C)C1 (stereo not drawn) [Example 226, 2-(5-acryloyl-2-(4-fluorophenyl)-3-(pyridin-4-yl)-4,5,6,7-tetrahydropyrazolo[1,5-a]pyrazin-7-yl)-N,N-dimethylacetamide] | 134 nM | 14 nM | 23.3 nM
4 | C=CC(=O)N1Cc2c(-c3ccncc3)c(-c3ccc(Cl)cc3F)nn2CC1C (stereo not drawn) [Example 227, 1-(2-(4-chloro-2-fluorophenyl)-6-methyl-3-(pyridin-4-yl)-6,7-dihydropyrazolo[1,5-a]pyrazin-5(4H)-yl) prop-2-en-1-one] | 5.94 nM | 0.12 nM | 0.394 nM
5 | C[C@H]1Cn2nc(-c3ccc(Cl)cc3)c(-c3ccncc3)c2CN1C(=O)/C=C/CN(C)C [Example 245, (2E)-1-[(6S)-2-(4-chlorophenyl)-6-methyl-3-(pyridin-4-yl)-6,7-dihydropyrazolo[1,5-a]pyrazin-5(4H)-yl]-4-(dimethylamino)but-2-en-1-one] | 11.9 nM | 0.113 nM | 0.262 nM
6 | C[C@@H]1Cn2nc(-c3ccc(Cl)cc3)c(-c3ccncc3)c2CN1C(=O)/C=C/CN(C)C [Example 246, (2E)-1-[(6R)-2-(4-chlorophenyl)-6-methyl-3-(pyridin-4-yl)-6,7-dihydropyrazolo[1,5-a]pyrazin-5(4H)-yl]-4-(dimethylamino)but-2-en-1-one] | 33.7 nM | 0.131 nM | 0.203 nM
7 | C=CC(=O)N1Cc2c(-c3ccnc4[nH]cc(C)c34)c(-c3ccc(C(F)(F)F)cc3)nn2C[C@@H]1C [Example 248, 1-[(6S)-6-methyl-3-(3-methyl-1H-pyrrolo[2,3-b]pyridin-4-yl)-2-[4-(trifluoromethyl)phenyl]-6,7-dihydropyrazolo[1,5-a]pyrazin-5(4H)-yl]prop-2-en-1-one] | 59.4 nM | 78.1 nM | 604 nM
8 | C=CC(=O)N1Cc2c(-c3ccnc4[nH]cc(C)c34)c(-c3ccc(F)cc3)nn2C[C@@H]1C [Example 251, 1-[(6S)-2-(4-fluorophenyl)-6-methyl-3-(3-methyl-1H-pyrrolo[2,3-b]pyridin-4-yl)-6,7-dihydropyrazolo[1,5-a]pyrazin-5(4H)-yl]prop-2-en-1-one] | 24.3 nM | 40.9 nM | 7.23 nM
9 | Cc1c[nH]c2nccc(-c3c(-c4ccc(C(F)(F)F)cc4)nn4c3CN(C(=O)/C=C/CN(C)C)[C@@H](C)C4)c12 [Example 254, (2E)-4-(dimethylamino)-1-[(6S)-6-methyl-3-(3-methyl-1H-pyrrolo[2,3-b]pyridin-4-yl)-2-[4-(trifluoromethyl)phenyl]-6,7-dihydropyrazolo[1,5-a]pyrazin-5(4H)-yl]but-2-en-1-one] | 39.9 nM | 36 nM | 437 nM
10 | Cc1c[nH]c2nccc(-c3c(-c4ccc(F)cc4)nn4c3CN(C(=O)/C=C/CN(C)C)[C@@H](C)C4)c12 [Example 257, (2E)-4-(dimethylamino)-1-[(6S)-2-(4-fluorophenyl)-6-methyl-3-(3-methyl-1H-pyrrolo[2,3-b]pyridin-4-yl)-6,7-dihydropyrazolo[1,5-a]pyrazin-5(4H)-yl]but-2-en-1-one] | 30.7 nM | 69.7 nM | 20.8 nM
11 | C=CC(=O)N1Cc2c(-c3ccnc4[nH]cc(C)c34)c(-c3ccc(C(F)(F)F)cc3)nn2C[C@H]1C [Example 260, 1-[(6R)-6-methyl-3-(3-methyl-1H-pyrrolo[2,3-b]pyridin-4-yl)-2-[4-(trifluoromethyl)phenyl]-6,7-dihydropyrazolo[1,5-a]pyrazin-5(4H)-yl]prop-2-en-1-one] | 101 nM | 82.9 nM | 1280 nM
12 | C=CC(=O)N1Cc2c(-c3ccnc4[nH]cc(C)c34)c(-c3ccc(F)cc3)nn2C[C@H]1C [Example 263, 1-[(6R)-2-(4-fluorophenyl)-6-methyl-3-(3-methyl-1H-pyrrolo[2,3-b]pyridin-4-yl)-6,7-dihydropyrazolo[1,5-a]pyrazin-5(4H)-yl]prop-2-en-1-one] | 81 nM | 112 nM | 24.6 nM
13 | Cc1c[nH]c2nccc(-c3c(-c4ccc(C(F)(F)F)cc4)nn4c3CN(C(=O)/C=C/CN(C)C)[C@H](C)C4)c12 [Example 266, (2E)-4-(dimethylamino)-1-[(6R)-6-methyl-3-(3-methyl-1H-pyrrolo[2,3-b]pyridin-4-yl)-2-[4-(trifluoromethyl)phenyl]-6,7-dihydropyrazolo[1,5-a]pyrazin-5(4H)-yl]but-2-en-1-one] | 121 nM | 462 nM | 3580 nM
14 | Cc1c[nH]c2nccc(-c3c(-c4ccc(F)cc4)nn4c3CN(C(=O)/C=C/CN(C)C)[C@H](C)C4)c12 [Example 269, (2E)-4-(dimethylamino)-1-[(6R)-2-(4-fluorophenyl)-6-methyl-3-(3-methyl-1H-pyrrolo[2,3-b]pyridin-4-yl)-6,7-dihydropyrazolo[1,5-a]pyrazin-5(4H)-yl]but-2-en-1-one] | 128 nM | 138 nM | 38.2 nM
15 | C=CC(=O)N1Cc2c(-c3ccncc3)c(-c3ccc(Cl)cc3F)nn2C[C@@H]1C [Example 270, 1-[(6S)-2-(4-chloro-2-fluorophenyl)-6-methyl-3-(pyridin-4-yl)-6,7-dihydropyrazolo[1,5-a]pyrazin-5(4H)-yl]prop-2-en-1-one] | 11.5 nM | 0.216 nM | 1.03 nM
16 | C=CC(=O)N1Cc2c(-c3ccncc3)c(-c3ccc(Cl)cc3F)nn2C[C@H]1C [Example 271, 1-[(6R)-2-(4-chloro-2-fluorophenyl)-6-methyl-3-(pyridin-4-yl)-6,7-dihydropyrazolo[1,5-a]pyrazin-5(4H)-yl]prop-2-en-1-one] | 225 nM | 0.132 nM | 0.351 nM
17 | C=CC(=O)N1CCn2nc(Nc3ccccc3)c(-c3ccncc3)c2C1 [Example 272, 1-[2-anilino-3-(pyridin-4-yl)-6,7-dihydropyrazolo[1,5-a]pyrazin-5(4H)-yl]prop-2-en-1-one] | 87.8 nM | 2.35 nM | 10.4 nM
18 | CN(C)C/C=C/C(=O)N1CCn2nc(Nc3ccccc3)c(-c3ccncc3)c2C1 [Example 273, (2E)-1-[2-anilino-3-(pyridin-4-yl)-6,7-dihydropyrazolo[1,5-a]pyrazin-5(4H)-yl]-4-(dimethylamino)but-2-en-1-one] | 531 nM | 3.94 nM | 21.6 nM
19 | C=CC(=O)N1Cc2c(-c3ccncc3)c(-c3ccc4sccc4c3)nn2C[C@@H]1C [Example 276, 1-[(6S)-2-(1-benzothiophen-5-yl)-6-methyl-3-(pyridin-4-yl)-6,7-dihydropyrazolo[1,5-a]pyrazin-5(4H)-yl]prop-2-en-1-one] | 6.22 nM | 0.0909 nM | 0.157 nM
20 | C=CC(=O)N1Cc2c(-c3ccncc3)c(-c3ccc4sccc4c3)nn2C[C@H]1C [Example 277, 1-[(6R)-2-(1-benzothiophen-5-yl)-6-methyl-3-(pyridin-4-yl)-6,7-dihydropyrazolo[1,5-a]pyrazin-5(4H)-yl]prop-2-en-1-one] | 2.77 nM | < 0.0725 nM and 0.0955 nM and 0.111 nM | 0.153 nM
21 | C=CC(=O)N1Cc2c(-c3ccnc4[nH]cc(C)c34)c(-c3cccc(C#N)c3)nn2C[C@@H]1C [Example 283, 3-[(6S)-6-methyl-3-(3-methyl-1H-pyrrolo[2,3-b]pyridin-4-yl)-5-(prop-2-enoyl)-4,5,6,7-tetrahydropyrazolo[1,5-a]pyrazin-2-yl]benzonitrile] | 37.5 nM | 249 nM | 30.3 nM
22 | C=CC(=O)N1Cc2c(-c3ccnc4[nH]cc(C)c34)c(-c3cccc(C#N)c3)nn2C[C@H]1C [Example 284, 3-[(6R)-6-methyl-3-(3-methyl-1H-pyrrolo[2,3-b]pyridin-4-yl)-5-(prop-2-enoyl)-4,5,6,7-tetrahydropyrazolo[1,5-a]pyrazin-2-yl]benzonitrile] | 530 nM | 1380 nM | 174 nM
23 | Cc1c[nH]c2nccc(-c3c(-c4cccc(C#N)c4)nn4c3CN(C(=O)/C=C/CN(C)C)[C@@H](C)C4)c12 [Example 288, 3-[(6S)-5-[(2E)-4-(dimethylamino)but-2-enoyl]-6-methyl-3-(3-methyl-1H-pyrrolo[2,3-b]pyridin-4-yl)-4,5,6,7-tetrahydropyrazolo[1,5-a]pyrazin-2-yl]benzonitrile] | 181 nM | 344 nM | 53.8 nM
